Test results: PubChem BioAssay (NCI)
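Abbreviation: GI50, concentration required for 50% inhibition of growth. TGI denotes the concentration required for complete inhibition of growth.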

Experiments:
Experiment in all cases: NCI anticancer screen, dose series, 384-well format
786-0 renal = system: 786-0 renal
CAKI-1 renal = system: CAKI-1 renal
HCC-2998 colon = system: HCC-2998 colon
HS 578T breast = system: HS 578T breast
KM12 colon = system: KM12 colon
MOLT-4 leukemia = system: MOLT-4 leukemia
NCI-H226 lung = system: NCI-H226 lung
NCI-H522 lung = system: NCI-H522 lung
NCI/ADR-RES ovarian = system: NCI/ADR-RES ovarian
PC-3 prostate = system: PC-3 prostate
RXF 393 renal = system: RXF 393 renal
SF-268 CNS = system: SF-268 CNS
T-47D breast = system: T-47D breast

| Compound | GI50 (786-0 renal) | TGI (786-0 renal) | GI50 (CAKI-1 renal) | TGI (CAKI-1 renal) | GI50 (HCC-2998 colon) | TGI (HCC-2998 colon) | GI50 (HS 578T breast) | TGI (HS 578T breast) | GI50 (KM12 colon) | TGI (KM12 colon) | GI50 (MOLT-4 leukemia) | TGI (MOLT-4 leukemia) | GI50 (NCI-H226 lung) | TGI (NCI-H226 lung) | GI50 (NCI-H522 lung) | TGI (NCI-H522 lung) | GI50 (NCI/ADR-RES ovarian) | TGI (NCI/ADR-RES ovarian) | GI50 (PC-3 prostate) | TGI (PC-3 prostate) | also measured |
| --- | --- | --- | --- | --- | --- | --- | --- | --- | --- | --- | --- | --- | --- | --- | --- | --- | --- | --- | --- | --- | --- |
| CN1CC[C@@H](c2c(O)cc(O)c3c(=O)cc(-c4ccc(C(F)(F)F)cc4Cl)oc23)[C@@H]1CO | 13.6 µM | 26.7 µM | 4.61 µM | 13.1 µM | 13.2 µM | 26.2 µM | 13.4 µM | 26.3 µM | 13.1 µM | 26 µM | 12.7 µM | 25.4 µM | 12.1 µM | 26.8 µM | 14 µM | 27.1 µM | 17.7 µM | 35.9 µM | 14.6 µM | 28.4 µM | GI50 (RXF 393 renal): 12.3 µM; TGI (RXF 393 renal): 24.8 µM; GI50 (SF-268 CNS): 15.1 µM; TGI (SF-268 CNS): 28.5 µM; GI50 (T-47D breast): 13.8 µM; TGI (T-47D breast): 26.8 µM |
| Cn1c(Nc2ccc(C(F)(F)F)cc2)nc2cc(Oc3ccnc(-c4ncc(C(F)(F)F)[nH]4)c3)ccc21 | 0.615 µM | 6.25 µM | 0.0157 µM | 12.4 µM | 0.0883 µM | 5.62 µM | 0.0391 µM | 6.25 µM | 0.734 µM | 12.5 µM | 0.0553 µM | 0.197 µM | 1.5 µM | 19.2 µM | 0.0556 µM | 11 µM | 0.567 µM | 2.84 µM | 0.833 µM | 12.3 µM | GI50 (RXF 393 renal): 0.0159 µM; TGI (RXF 393 renal): 0.348 µM; GI50 (SF-268 CNS): 0.387 µM; TGI (SF-268 CNS): 13.3 µM; GI50 (T-47D breast): 0.274 µM; TGI (T-47D breast): 9.06 µM |
